The first test has as its system NCI-H1975. Description: relative viability (nuclei count vs DMSO), 5 days (fraction); higher = more cells survive. The note with it: first compound 2.53 µM. The procedure, abridged: (§1)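 Dosing by pin tool came one day after lung cancer cell lines were seeded in 1536-well plates, using either one drug or a fixed anchor-drug dose plus five library-drug doses (not always all listed) in √10 steps. After 5 days, nuclei were counted on 4× images. Relative viability is treated-well nuclei count divided by vehicle-well nuclei count, and values are medians of duplicate plates.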
`CCCCCCCCCCCC1=C(O)C(=O)C=C(O)C1=O` [Embelin] + CC(=O)Nc1cccc(-n2c(=O)n(C3CC3)c(=O)c3c(Nc4ccc(I)cc4F)n(C)c(=O)c(C)c32)c1 [Trametinib] (partner 0.02 µM) returned a relative viability of 0.376.
Compound `CCCCCCCCCCCC1=C(O)C(=O)C=C(O)C1=O` [Embelin] + CS(=O)(=O)N1CCN(Cc2cc3nc(-c4cccc5[nH]ncc45)nc(N4CCOCC4)c3s2)CC1 [Pictilisib] (partner 1 µM) yielded a relative viability of 0.288.
The compound `CCCCCCCCCCCC1=C(O)C(=O)C=C(O)C1=O` [Embelin] + NC(=O)Nc1cc(-c2cccc(F)c2)sc1C(=O)N[C@H]1CCCNC1 [AZD7762] (partner 0.2 µM) came in with a relative viability of 0.806.
On the same count and under the same terms, the figure for `CCCCCCCCCCCC1=C(O)C(=O)C=C(O)C1=O` [Embelin] + Cc1nc(NC(=O)N2CCC[C@H]2C(N)=O)sc1-c1ccnc(C(C)(C)C(F)(F)F)c1 [Alpelisib] (partner 2 µM) is 0.696.

Still in this test, the particulars now being: first compound 8 µM.
Turning to `CCCCCCCCCCCC1=C(O)C(=O)C=C(O)C1=O` [Embelin] + COc1cc2c(Oc3ccc(NC(=O)C4(C(=O)Nc5ccc(F)cc5)CC4)cc3F)ccnc2cc1OCCCN1CCOCC1 [Foretinib] (partner 0.25 µM), the relative viability worked out at 1.07.
On to `CCCCCCCCCCCC1=C(O)C(=O)C=C(O)C1=O` [Embelin] + CC(=O)Nc1cccc(-n2c(=O)n(C3CC3)c(=O)c3c(Nc4ccc(I)cc4F)n(C)c(=O)c(C)c32)c1 [Trametinib] (partner 0.02 µM), for which the relative viability worked out at 0.369.
In turn, `CCCCCCCCCCCC1=C(O)C(=O)C=C(O)C1=O` [Embelin] + CS(=O)(=O)N1CCN(Cc2cc3nc(-c4cccc5[nH]ncc45)nc(N4CCOCC4)c3s2)CC1 [Pictilisib] (partner 1 µM) had a relative viability of 0.288.
For the compound `CCCCCCCCCCCC1=C(O)C(=O)C=C(O)C1=O` [Embelin] + NC(=O)Nc1cc(-c2cccc(F)c2)sc1C(=O)N[C@H]1CCCNC1 [AZD7762] (partner 0.2 µM), the relative viability was 0.703.
Still for that read-out and setting: next, `CCCCCCCCCCCC1=C(O)C(=O)C=C(O)C1=O` [Embelin] + Cc1nc(NC(=O)N2CCC[C@H]2C(N)=O)sc1-c1ccnc(C(C)(C)C(F)(F)F)c1 [Alpelisib] (partner 2 µM): 0.674.

In another test the test system is NCI-H647. The test is described as above. The note with it: first compound 0.08 µM. The procedure, abridged:
as §1
The compound `CCCCCCCCCCCC1=C(O)C(=O)C=C(O)C1=O` [Embelin] + COc1cc2c(Oc3ccc(NC(=O)C4(C(=O)Nc5ccc(F)cc5)CC4)cc3F)ccnc2cc1OCCCN1CCOCC1 [Foretinib] (partner 0.25 µM) had a relative viability of 1.37.
`CCCCCCCCCCCC1=C(O)C(=O)C=C(O)C1=O` [Embelin] + CC(=O)Nc1cccc(-n2c(=O)n(C3CC3)c(=O)c3c(Nc4ccc(I)cc4F)n(C)c(=O)c(C)c32)c1 [Trametinib] (partner 0.02 µM) displayed a relative viability of 0.489.
The same measure, in the same setting: the figure for `CCCCCCCCCCCC1=C(O)C(=O)C=C(O)C1=O` [Embelin] + CS(=O)(=O)N1CCN(Cc2cc3nc(-c4cccc5[nH]ncc45)nc(N4CCOCC4)c3s2)CC1 [Pictilisib] (partner 1 µM) is 0.423.
On the same count and under the same terms, the figure for `CCCCCCCCCCCC1=C(O)C(=O)C=C(O)C1=O` [Embelin] + NC(=O)Nc1cc(-c2cccc(F)c2)sc1C(=O)N[C@H]1CCCNC1 [AZD7762] (partner 0.2 µM) is 0.379.
Turning to `CCCCCCCCCCCC1=C(O)C(=O)C=C(O)C1=O` [Embelin] + Cc1nc(NC(=O)N2CCC[C@H]2C(N)=O)sc1-c1ccnc(C(C)(C)C(F)(F)F)c1 [Alpelisib] (partner 2 µM), the relative viability amounted to 1.29.

The same test, now with this note: first compound 0.8 µM.
`CCCCCCCCCCCC1=C(O)C(=O)C=C(O)C1=O` [Embelin] + COc1cc2c(Oc3ccc(NC(=O)C4(C(=O)Nc5ccc(F)cc5)CC4)cc3F)ccnc2cc1OCCCN1CCOCC1 [Foretinib] (partner 0.25 µM) came in with a relative viability of 1.38.
Same read-out and setting: the figure for `CCCCCCCCCCCC1=C(O)C(=O)C=C(O)C1=O` [Embelin] + CC(=O)Nc1cccc(-n2c(=O)n(C3CC3)c(=O)c3c(Nc4ccc(I)cc4F)n(C)c(=O)c(C)c32)c1 [Trametinib] (partner 0.02 µM) is 0.528; for `CCCCCCCCCCCC1=C(O)C(=O)C=C(O)C1=O` [Embelin] + CS(=O)(=O)N1CCN(Cc2cc3nc(-c4cccc5[nH]ncc45)nc(N4CCOCC4)c3s2)CC1 [Pictilisib] (partner 1 µM) it is 0.59.
The same measure, in the same setting: the figure for `CCCCCCCCCCCC1=C(O)C(=O)C=C(O)C1=O` [Embelin] + NC(=O)Nc1cc(-c2cccc(F)c2)sc1C(=O)N[C@H]1CCCNC1 [AZD7762] (partner 0.2 µM) is 0.674.
Turning to `CCCCCCCCCCCC1=C(O)C(=O)C=C(O)C1=O` [Embelin] + Cc1nc(NC(=O)N2CCC[C@H]2C(N)=O)sc1-c1ccnc(C(C)(C)C(F)(F)F)c1 [Alpelisib] (partner 2 µM), the relative viability was 1.15.

Still in this test, the particulars now being: first compound 2.53 µM.
As to `CCCCCCCCCCCC1=C(O)C(=O)C=C(O)C1=O` [Embelin] + COc1cc2c(Oc3ccc(NC(=O)C4(C(=O)Nc5ccc(F)cc5)CC4)cc3F)ccnc2cc1OCCCN1CCOCC1 [Foretinib] (partner 0.25 µM), the relative viability was 1.28.
Still for that read-out and setting: the figure for `CCCCCCCCCCCC1=C(O)C(=O)C=C(O)C1=O` [Embelin] + CC(=O)Nc1cccc(-n2c(=O)n(C3CC3)c(=O)c3c(Nc4ccc(I)cc4F)n(C)c(=O)c(C)c32)c1 [Trametinib] (partner 0.02 µM) is 0.638.
With `CCCCCCCCCCCC1=C(O)C(=O)C=C(O)C1=O` [Embelin] + CS(=O)(=O)N1CCN(Cc2cc3nc(-c4cccc5[nH]ncc45)nc(N4CCOCC4)c3s2)CC1 [Pictilisib] (partner 1 µM), the relative viability was determined as 0.403.
In turn, `CCCCCCCCCCCC1=C(O)C(=O)C=C(O)C1=O` [Embelin] + NC(=O)Nc1cc(-c2cccc(F)c2)sc1C(=O)N[C@H]1CCCNC1 [AZD7762] (partner 0.2 µM) displayed a relative viability of 0.365.
Turning to `CCCCCCCCCCCC1=C(O)C(=O)C=C(O)C1=O` [Embelin] + Cc1nc(NC(=O)N2CCC[C@H]2C(N)=O)sc1-c1ccnc(C(C)(C)C(F)(F)F)c1 [Alpelisib] (partner 2 µM), the relative viability came out at 1.45.

The test is the same for the next values; noted with them: first compound 8 µM.
The compound `CCCCCCCCCCCC1=C(O)C(=O)C=C(O)C1=O` [Embelin] + COc1cc2c(Oc3ccc(NC(=O)C4(C(=O)Nc5ccc(F)cc5)CC4)cc3F)ccnc2cc1OCCCN1CCOCC1 [Foretinib] (partner 0.25 µM) yielded a relative viability of 1.08.
Same read-out and setting: the figure for `CCCCCCCCCCCC1=C(O)C(=O)C=C(O)C1=O` [Embelin] + CC(=O)Nc1cccc(-n2c(=O)n(C3CC3)c(=O)c3c(Nc4ccc(I)cc4F)n(C)c(=O)c(C)c32)c1 [Trametinib] (partner 0.02 µM) is 0.446; for `CCCCCCCCCCCC1=C(O)C(=O)C=C(O)C1=O` [Embelin] + CS(=O)(=O)N1CCN(Cc2cc3nc(-c4cccc5[nH]ncc45)nc(N4CCOCC4)c3s2)CC1 [Pictilisib] (partner 1 µM) it is 0.285; for `CCCCCCCCCCCC1=C(O)C(=O)C=C(O)C1=O` [Embelin] + NC(=O)Nc1cc(-c2cccc(F)c2)sc1C(=O)N[C@H]1CCCNC1 [AZD7762] (partner 0.2 µM) it is 0.309.
As to `CCCCCCCCCCCC1=C(O)C(=O)C=C(O)C1=O` [Embelin] + Cc1nc(NC(=O)N2CCC[C@H]2C(N)=O)sc1-c1ccnc(C(C)(C)C(F)(F)F)c1 [Alpelisib] (partner 2 µM), the relative viability amounted to 1.28.

The values are drawn from the supplement of paper PMC10307832.
